Tests used:
[1] = tested on: macrophages (F4/80+ cells) and dendritic cells (CD11c+ cells); test: In vivo phagocytosis of injected apoptotic thymocytes by spleen phagocytes; design: species or system mice; details: 10 mg/kg intraperitoneally; spleen after 1 hour
Method: The present inventors investigated whether the phagocytosis caused by the ROCK inhibitor could be enhanced not only in vitro but also in vivo. For this purpose, thymocytes stained with CFSE (carboxyfluorescein succinimidyl ester, Thermo Fisher Scientific, Inc., USA) and in which apoptosis was induced by 1 μM dexamethasone were injected to the blood vessel of mice who were pre-injected with 10 mg/kg of Y27632 intraperitoneally. After 1 hour, the spleen was extracted from the mice and the spleen was single celled. The phagocytic activities of macrophages (F4/80^+ cells) and dendritic cells (CD11c^+ cells) against apoptotic thymocytes were analyzed (FIGS. 7B and 7C).

CT26.CL25 cells = test: Anti-cancer immune memory (tumor removal and re-injection); type: in vivo, Balb/c wild-type mice; details: 10 mg/kg intravenous; compared with PBS control
Method: To confirm whether the ROCK inhibitor induces anti-cancer immune memory, CT26.CL25 cells (1×10^6 cells) were injected into the right flank of Balb/c wild-type mice to induce cancer, and then 10 mg/kg of Y27632 was administered continuously for two consecutive days via intravenous injection, followed by a day of rest as a cycle, followed by 3 cycles of 3-day intervals. After 22nd days from the day of cancer injection, the induced tumor was removed by surgery. One week later, the same cancer cells (7×10^6 cells) were injected to the other flank and the growth of tumor was investigated (FIG. 12A).

CT26.CL25 cell line = test: CT26.CL25 tumor model in immunodeficient nude mice; type: in vivo; details: 10 mg/kg intravenous
Method: Specifically, immunodeficient nude mice were subcutaneously injected with 1×10^6 cells of CT26.CL25 cell line in order to induce cancer. After the 11 days from the injection of the cancer cells, tumor size was 50-100 mm^3, and Y27632 was administered at a dose of 10 mg/kg continuously for two consecutive days by intravenous injection, followed by a day of rest as a cycle, followed by 3 cycles of 3-day intervals (FIG. 9A). As a negative control group, only phosphate buffered saline (PBS) was administered. The tumor tissues were excised and an ex vivo image was taken. In addition, before the mice were sacrificed, the change in body weight was measured at intervals of 3 days from the 11th day of cancer cell injection in the case of CT26.CL25 cancer model, and the length (L) and width (W) were measured, and the volume of the tumor tissues was measured using the equation described in Example 2-1 (FIG. 9B).

[2] = tested on: CT26.CL25 cancer cell line; test: CT26.CL25 tumor model with depletion of immune cells; type: in vivo, mice; details: 10 mg/kg intravenous
Method: Specifically, tumor model mice were prepared by subcutaneously injecting 1×10^6 cells of CT26.CL25 cancer cell line expressing β-galactosidase into wild type mice by subcutaneous injection into the left side or the like.
For the depletion of phagocytic cells in the tumor model mice, 200 μl of control liposome (FormuMax Scientific, Inc., USA) or 200 μl of clodronate liposome (FormuMax Scientific, Inc., USA) were injected intraperitoneally 5 days after cancer cell injection, and then 100 μl of the liposomes were intraperitoneally injected at intervals of 4 days until the end of the experiment Similarly, for the depletion of CD8 T cells or CD4 T cells, 200 μg of anti-CD8a antibodies (clone 2.43, bioXcell) or anti-CD4 antibodies (Clone GK 1.5, bioXcell, USA) were intraperitoneally injected (FIGS. 10A and 10B) to the tumor model mice. As a negative control, only the carrier (PBS) or the rat-derived nonspecific antibodies (rIgG, Clone LTF-2, bioXcell, USA) was administered to the tumor model mice.
From the 6th day after the injection of the cancer cells, Y27632 was administered at a dose of 10 mg/kg continuously for two consecutive days via intravenous injection, followed by a day of rest as a cycle, followed by 3 cycles of 3-day intervals. Mice were sacrificed 22 days after the injection of cancer cells, the tumor tissues were excised, and ex vivo images were taken, and the tumor tissues were weighed. Before the sacrifice of the mice, the volume of the tumor over time was calculated as described above (FIGS. 10E and 10F). […] Thus, we confirmed that the therapeutic effect of ROCK inhibitors appears to require CD8 T cells. […] As a control, a rat-derived nonspecific antibody (rIgG, BioXcell, USA) was used.

[3] = tested on: bone marrow-derived dendritic cells (BMDCs); test: Phagocytosis of cancer cells by bone marrow-derived dendritic cells in vitro; type: cell-based, mice; details: 30 μM, 1 hour

C[C@@H](N)[C@H]1CC[C@H](C(=O)Nc2ccncc2)CC1 [Y27632]
phagocytosis of spleen dendritic cells against apoptotic thymocytes [1]: significantly enhanced
phagocytosis of spleen macrophages against apoptotic thymocytes [1]: significantly enhanced
proportion of tumor-free mice after re-injection of cancer cells (CT26.CL25 cells): significantly increased
anti-cancer effect (tumor volume) in nude mice lacking immune function (CT26.CL25 cell line): only a limited anti-cancer effect
anti-cancer effect when CD8 T cells were depleted by anti-CD8a antibodies [2]: disappeared
anti-cancer effect when phagocytic cells were depleted by clodronate [2]: disappeared
anticancer effect when CD4 T cells were deficient [2]: anticancer effect similar to that in normal mice
phagocytosis of BMDCs against non-immunogenic apoptosis-induced cancer cells by cisplatin ([3]; CT26.CL25 or B16F10-Ova): increased similarly to that by doxorubicin treatment
phagocytosis of BMDCs against necrosis-induced cancer cells ([3]; necrosis at 55° C. for 30 minutes): increased similarly to that by doxorubicin treatment
